This is an account of results in patent publication US8278301B2, “2-alkylbenzoxazole carboxamides as 5HT3 modulators” (Albany Molecular Research, Inc., priority 2006, dated 2012).

One assay deals with T1, 5-HT3 receptors (Mus musculus, UniProt P23979).
T1 construct: from tissue; host or cells: whole animal, CD-1(Crl.) mice
T1 sequence (P23979 24-489): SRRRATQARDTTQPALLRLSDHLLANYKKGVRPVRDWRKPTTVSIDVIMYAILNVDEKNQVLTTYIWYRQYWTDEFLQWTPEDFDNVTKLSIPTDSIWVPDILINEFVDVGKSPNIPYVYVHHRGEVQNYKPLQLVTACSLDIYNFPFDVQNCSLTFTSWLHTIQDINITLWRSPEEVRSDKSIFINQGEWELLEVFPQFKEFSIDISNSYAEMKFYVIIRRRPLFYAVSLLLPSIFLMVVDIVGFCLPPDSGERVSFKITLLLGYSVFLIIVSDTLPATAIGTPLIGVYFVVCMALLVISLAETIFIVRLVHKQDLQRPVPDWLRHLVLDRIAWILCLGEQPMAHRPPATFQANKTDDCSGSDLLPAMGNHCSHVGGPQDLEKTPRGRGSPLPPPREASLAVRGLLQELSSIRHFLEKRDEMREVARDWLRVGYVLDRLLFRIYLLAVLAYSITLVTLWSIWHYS
Description: Bezold-Jarisch assay in vivo: inhibition of serotonin induced bradycardia. The conditions noted are these: 30 mg/kg orally, 60 min before 5-HT 0.5 mg/kg IV, pentobarbital-anesthetized. How it is done: Bezold-Jarisch Assay in vivo. […] Arch. Int. Pharmacodyn. 277: 235-252, 1985]. Test substances and vehicle [2% Tween 80] were each administered orally (30 mg/kg) to a group of 5 male or female CD-1(Crl.) mice each weighing 24±2 g. A dosing volume of 10 mL/kg was used. Sixty minutes later, 5-HT (0.5 mg/kg IV)-induced bradycardia was recorded in pentobarbital (80 mg/kg IP, given 10 minutes before 5-HT)-anesthetized animals.

A further assay concerns the target T2, human 5-HT3 receptor (Homo sapiens, UniProt P46098).
T2 sequence (P46098 24-478): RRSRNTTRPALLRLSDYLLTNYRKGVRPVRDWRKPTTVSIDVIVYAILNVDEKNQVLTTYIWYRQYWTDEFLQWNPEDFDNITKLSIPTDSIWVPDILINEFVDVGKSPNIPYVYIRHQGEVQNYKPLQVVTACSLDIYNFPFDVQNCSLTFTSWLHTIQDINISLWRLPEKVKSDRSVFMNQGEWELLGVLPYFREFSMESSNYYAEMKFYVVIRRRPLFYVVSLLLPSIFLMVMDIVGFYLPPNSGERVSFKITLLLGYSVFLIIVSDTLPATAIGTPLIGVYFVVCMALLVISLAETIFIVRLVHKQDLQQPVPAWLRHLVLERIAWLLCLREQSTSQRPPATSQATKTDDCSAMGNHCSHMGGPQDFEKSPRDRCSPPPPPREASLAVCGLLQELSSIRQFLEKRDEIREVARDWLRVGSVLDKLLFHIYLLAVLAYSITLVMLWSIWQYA
Description: Compound affinity for the human 5-HT3 receptor (Assay B), SPA radioligand binding with [9-methyl-3H]BRL-43694. The arrangement: purchased Perkin Elmer. As for the experimental part: Compound Affinity for the Human 5-HT3 Receptor (Assay B)
The relative affinity of the various compounds for the human 5-HT3 receptor was measured in a radioligand binding assay, using a scintillation proximity assay (SPA) format. Test compounds were dissolved to 10 mM in 100% DMSO, then serially diluted at 10× assay concentrations in 100% DMSO in 96-well polypropylene plates and further diluted to 4× assay concentrations with the assay buffer. Samples were incubated in 50 mM Tris-HCl, pH 7.5, 3 mM MgCl2, 1 mM EDTA and 10% DMSO with 10 nM [9-methyl-3H]BRL-43694 (Perkin Elmer), 3 μg of human 5-HT3 receptor membranes (Perkin Elmer) and 0.5 mg/mL SPA beads (WGA PVT, Amersham Biosciences) in a final volume of 0.2 mL. Binding reactions were set up in wells of PicoPlates-96 (Perkin Elmer) by adding consecutively 50 μL of each competing compound or buffer, SPA beads, the radioligand and 5-HT3 receptor membranes. After 60-min incubation at room temperature on a Nutator mixer, plates were centrifuged for 15 min at 1,500 rpm, followed by incubation in the dark for 30 min. Radioactivity was counted in the TopCount microplate counter (Perkin Elmer) for 5 min. Total binding control contained buffer only; nonspecific binding was determined in the presence of 30 μM MDL-72222. Specific binding was determined by subtracting nonspecific binding from total binding. All experiments were performed in duplicate using ten concentrations of a competing ligand, with ondansetron included as a control in every run. IC50 values were determined from specific binding data using XLfit4.1 curve fitting software from IDBS Ltd. Ki values were then calculated from the Cheng-Prusoff equation.
(§1) In the table below, the assay in which the data were obtained is shown (as A, B. C, or D) along with the data.

The target of another assay is T3, mouse 5-HT3 receptor (Mus musculus, UniProt P23979).
T3 construct: host or cells: mouse neuroblastoma cells (N1E-155 as printed)
T3 sequence (P23979 24-489): T1 sequence (P23979 24-489)
Put plainly: Compound affinity for the mouse 5-HT3 receptor (Assay C), [3H]-GR65630 radioligand binding, Novoscreen. To be noted: Assay C; single concentration 100 nM, in duplicate; [3H]-GR65630; read-out: Mouse % Inhibition @ 100 nM. As for the experimental part:
Compound Affinity for the Mouse 5-HT3Receptor (Assay C)
Compounds were tested by Novoscreen Biosciences Corporation, 7170 Standard Drive, Hanover, Md. in a radioligand binding assay using the mouse 5-HT3 receptor derived from mouse neuroblastoma cells and [^3H]-GR65630 (ligand). The non-specific binding determinant was MDL 72222. Compounds were tested at a single concentration of 100 nM in duplicate. Percent inhibition is reported. In order to evaluate the relative affinity of the various compounds for the 5-HT3 receptor, N1E-155 cell lines were developed to express the target protein. For binding, these cells were homogenized, centrifuged and washed with buffer (20 mM HEPES, 150 mM NaCl, pH 7.4) then suspended in 0.5 mL of buffer and [^3H]-GR65630 added at a concentration of 3.5×10^−10 M. An initial single concentration of 10^−7 M of the test compound was then added. Incubation was carried out at room temperature for 60 minutes at 25° C. then was terminated by rapid removal of the incubation medium. Radioactivity was assessed using liquid scintillation spectrophotometry after exposure to scintillation cocktail for at least three hours. […] Ki values were then calculated from the Cheng-Prusoff equation. In all of the above binding studies the non-specific determinant was MDL-72222 (1.0 μM).
as §1

In general, Ki refers to the dissociation constant of the complex between target and ligand, obtained from inhibition or displacement. For orientation: inhibition means the relative decrease from the control value, in per cent. For the molecule `CN1[C@@H]2CCC[C@H]1C[C@@H](NC(=O)c1cccc3oc(C4CC4)nc13)C2` [Example 1, Endo-N-(9-Methyl-9-azabicyclo[3.3.1]non-3-yl)-2-cyclopropylbenzoxazole-4-carboxamide], the “inhibition of 5-HT-induced bradycardia” value on 5-HT3 receptors came out at 56%. Further, the Ki on human 5-HT3 receptor amounted to 4.1 nM. Further, the inhibition at 0.1 µM at mouse 5-HT3 receptor worked out at 96.1%.
With `O=C(N[C@@H]1CN2CCC1CC2)c1cccc2oc(C3CC3)nc12` [Example 2, (S)—N-(1-Azabicyclo[2.2.2]oct-3-yl)-2-cyclopropylbenzoxazole-4-carboxamide], the “inhibition of 5-HT-induced bradycardia” value against 5-HT3 receptors worked out at 80%. Further, the Ki on human 5-HT3 receptor is 11 nM. Further, the inhibition at 0.1 µM on mouse 5-HT3 receptor was found to be 87.7%.
